Reference: patent US9701670B2, “Pyrazolyl-ureas as kinase inhibitors” (RESPIVERT LIMITED, priority 2013, dated 2017)

How the values were obtained:
[1] = tested on: Differentiated U937 cells; assay: (l) Cell viability: MTT assay; assay type: cell-based, human; conditions: 1 μg/mL
Method: Differentiated U937 cells are pre-incubated with each test compound (final concentration 1 μg/mL or 10 μg/mL in 200 μL media indicated below) under two protocols: the first for 4 hr in 5% FCS RPMI1640 media and the second in 10% FCS RPMI1640 media for 24 h. The supernatant is replaced with new media (200 μL) and MTT stock solution (10 μL, 5 mg/mL) is added to each well. After incubation for 1 hr the media are removed, DMSO (200 μL) is added to each well and the plates are shaken lightly for 1 hr prior to reading the absorbance at 550 nm. The percentage loss of cell viability is calculated for each well relative to vehicle (0.5% DMSO) treatment. Consequently an apparent increase in cell viability for drug treatment relative to vehicle is tabulated as a negative percentage.

[2] = target: p38 MAPKα isoform (MAPK14) (Homo sapiens (Human), UniProt Q16539); assay: p38 MAPKα enzyme inhibition (FRET, Z-LYTE), Method 1; assay type: biochemical; conditions: Method 1 (Table 4a1)
Method: The enzyme inhibitory activities of compounds disclosed herein are determined by FRET using synthetic peptides labelled with both donor and acceptor fluorophores (Z-LYTE, Invitrogen Ltd., Paisley, UK).
The inhibitory activities of test compounds against the p38 MAPKα isoform (MAPK14: Invitrogen), are evaluated indirectly by determining the level of activation/phosphorylation of the down-stream molecule, MAPKAP-K2. The p38 MAPKα protein (80 ng/mL, 2.5 μL) is mixed with the test compound (2.5 μL of either 4 μg/mL, 0.4 μg/mL, 0.04 μg/mL or 0.004 μg/mL) for 2 hr at RT. […] The mixture is incubated for 1 hr at RT. Development reagent (protease, 5 μL) is added for 1 hr prior to detection in a fluorescence microplate reader (Varioskan® Flash, ThermoFisher Scientific).
In all cases, the site-specific protease cleaves non-phosphorylated peptide only and eliminates the FRET signal. Phosphorylation levels of each reaction are calculated using the ratio of coumarin emission (donor) over fluorescein emission (acceptor), for which high ratios indicate high phosphorylation and low ratios indicate low phosphorylation levels.

Sequence of p38 MAPKα isoform (MAPK14) (Q16539 whole entry, canonical isoform): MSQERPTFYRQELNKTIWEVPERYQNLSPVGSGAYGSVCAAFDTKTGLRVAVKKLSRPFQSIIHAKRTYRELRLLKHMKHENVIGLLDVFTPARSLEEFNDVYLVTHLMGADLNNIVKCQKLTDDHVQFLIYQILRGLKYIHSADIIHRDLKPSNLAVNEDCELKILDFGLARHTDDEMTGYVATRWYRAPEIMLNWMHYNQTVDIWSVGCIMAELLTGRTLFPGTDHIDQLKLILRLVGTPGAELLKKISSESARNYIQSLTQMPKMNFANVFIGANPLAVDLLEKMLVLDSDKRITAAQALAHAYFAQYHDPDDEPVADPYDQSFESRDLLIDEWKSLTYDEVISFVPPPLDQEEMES

Structure (SMILES)	IC50 [2] [nM]	Cell viability at time point in d-U937 cells 4 h [1]	Cell viability at time point in d-U937 cells 24 h [1]
COc1cc(Nc2nccc(Oc3ccc(NC(=O)Nc4cc(C(C)C)nn4-c4ccc(C)cc4)c4ccccc34)n2)cc(C(=O)N2CCOCC2)c1 [Example 12, 1-(3-Isopropyl-1-(p-tolyl)-1H-pyrazol-5-yl)-3-(4-((2-((3-methoxy-5-(morpholine-4-carbonyl)phenyl)amino)pyrimidin-4-yl)oxy)naphthalen-1-yl)urea]	6	−ve (−ve and +ve indicate that the value is below and above respectively, the no significant effect threshold, defined as 30% inhibition at 1 μg/mL at the time point indicated.)	−ve (−ve and +ve indicate that the value is below and above respectively, the no significant effect threshold, defined as 30% inhibition at 1 μg/mL at the time point indicated.)
Cc1ccc(-n2nc(C3(C)COC3)cc2NC(=O)Nc2ccc(Oc3ccnc(Nc4cccc(C(=O)NCCN5CCOCC5)c4)n3)c3ccccc23)cc1 [Example 22, 3-((4-((4-(3-(3-(3-methyloxetan-3-yl)-1-(p-tolyl)-1H-pyrazol-5-yl)ureido)naphthalen-1-yl)oxy)pyrimidin-2-yl)amino)-N-(2-morpholinoethyl)benzamide]	< 1	−ve (−ve and +ve indicate that the value is below and above respectively, the no significant effect threshold, defined as 30% inhibition at 1 μg/mL at the time point indicated.)	−ve (−ve and +ve indicate that the value is below and above respectively, the no significant effect threshold, defined as 30% inhibition at 1 μg/mL at the time point indicated.)
COCCNC(=O)c1cc(Nc2nccc(Oc3ccc(NC(=O)Nc4cc(C(C)(C)C)nn4-c4ccc(C)cc4)c4ccccc34)n2)cc(OC)c1 [Example 67, 3-((4-((4-(3-(3-(tert-butyl)-1-(p-tolyl)-1H-pyrazol-5-yl)ureido)naphthalen-1-yl)oxy)pyrimidin-2-yl)amino)-5-methoxy-N-(2-methoxyethyl)benzamide]	24	−ve (−ve and +ve indicate that the value is below and above respectively, the no significant effect threshold, defined as 30% inhibition at 1 μg/mL at the time point indicated.)	−ve (−ve and +ve indicate that the value is below and above respectively, the no significant effect threshold, defined as 30% inhibition at 1 μg/mL at the time point indicated.)
COc1ccc(-n2nc(C3(C)COC3)cc2NC(=O)Nc2ccc(Oc3ccnc(Nc4cccc(C(=O)NCCN5CCOCC5)c4)n3)c3ccccc23)cc1 [Example 23, 3-((4-((4-(3-(1-(4-methoxyphenyl)-3-(3-methyloxetan-3-yl)-1H-pyrazol-5-yl)ureido)naphthalen-1-yl)oxy)pyrimidin-2-yl)amino)-N-(2-morpholinoethyl)benzamide]	< 1	−ve (−ve and +ve indicate that the value is below and above respectively, the no significant effect threshold, defined as 30% inhibition at 1 μg/mL at the time point indicated.)	−ve (−ve and +ve indicate that the value is below and above respectively, the no significant effect threshold, defined as 30% inhibition at 1 μg/mL at the time point indicated.)
COc1cc(C(=O)NCCO)ccc1Nc1nccc(Oc2ccc(NC(=O)Nc3cc(C(C)C)nn3-c3ccc(C)cc3)c3ccccc23)n1 [Example 39, N-(2-hydroxyethyl)-4-((4-((4-(3-(3-isopropyl-1-(p-tolyl)-1H-pyrazol-5-yl)ureido)naphthalen-1-yl)oxy)pyrimidin-2-yl)amino)-3-methoxybenzamide]	7	−ve (−ve and +ve indicate that the value is below and above respectively, the no significant effect threshold, defined as 30% inhibition at 1 μg/mL at the time point indicated.)	−ve (−ve and +ve indicate that the value is below and above respectively, the no significant effect threshold, defined as 30% inhibition at 1 μg/mL at the time point indicated.)
COc1cc(Nc2cc(Oc3ccc(NC(=O)Nc4cc(C(C)C)nn4-c4ccc(C)cc4)c4ccccc34)ncn2)cc(C(=O)NCCN2CCOCC2)c1 [Example 71, 3-((6-((4-(3-(3-isopropyl-1-(p-tolyl)-1H-pyrazol-5-yl)ureido)naphthalen-1-yl)oxy)pyrimidin-4-yl)amino)-5-methoxy-N-(2-morpholinoethyl)benzamide]	2	−ve (−ve and +ve indicate that the value is below and above respectively, the no significant effect threshold, defined as 30% inhibition at 1 μg/mL at the time point indicated.)	−ve (−ve and +ve indicate that the value is below and above respectively, the no significant effect threshold, defined as 30% inhibition at 1 μg/mL at the time point indicated.)

Now from value to compound, other results behind:

IC50 [2] [nM]	Structure (SMILES)	Cell viability at time point in d-U937 cells 4 h [1]	Cell viability at time point in d-U937 cells 24 h [1]
< 1	COc1ccc(-n2nc(C3CCCO3)cc2NC(=O)Nc2ccc(Oc3ccnc(Nc4cc(OC)cc(C(=O)NCCN5CCOCC5)c4)n3)c3ccccc23)cc1 (stereo not drawn) [Example 58, 3-methoxy-5-((4-((4-(3-(1-(4-methoxyphenyl)-3-(tetrahydrofuran-2-yl)-1H-pyrazol-5-yl)ureido)naphthalen-1-yl)oxy)pyrimidin-2-yl)amino)-N-(2-morpholinoethyl)benzamide]	−ve (−ve and +ve indicate that the value is below and above respectively, the no significant effect threshold, defined as 30% inhibition at 1 μg/mL at the time point indicated.)	−ve (−ve and +ve indicate that the value is below and above respectively, the no significant effect threshold, defined as 30% inhibition at 1 μg/mL at the time point indicated.)
20	COc1ccc(-n2nc(C(C)C)cc2NC(=O)Nc2ccc(Oc3ccnc(Nc4cc(Cl)cc(C(=O)NCCN5CCOCC5)c4)n3)c3ccccc23)cc1 [Example 61, 3-chloro-5-((4-((4-(3-(3-isopropyl-1-(4-methoxyphenyl)-1H-pyrazol-5-yl)ureido)naphthalen-1-yl)oxy)pyrimidin-2-yl)amino)-N-(2-morpholinoethyl)benzamide]	−ve (−ve and +ve indicate that the value is below and above respectively, the no significant effect threshold, defined as 30% inhibition at 1 μg/mL at the time point indicated.)	−ve (−ve and +ve indicate that the value is below and above respectively, the no significant effect threshold, defined as 30% inhibition at 1 μg/mL at the time point indicated.)
2	COc1ccc(-n2nc(C3CCOC3)cc2NC(=O)Nc2ccc(Oc3ccnc(Nc4cc(OC)cc(C(=O)NCCN5CCOCC5)c4)n3)c3ccccc23)cc1 (stereo not drawn) [Example 59, 3-methoxy-5-((4-((4-(3-(1-(4-methoxyphenyl)-3-(tetrahydrofuran-3-yl)-1H-pyrazol-5-yl)ureido)naphthalen-1-yl)oxy)pyrimidin-2-yl)amino)-N-(2-morpholinoethyl)benzamide]	−ve (−ve and +ve indicate that the value is below and above respectively, the no significant effect threshold, defined as 30% inhibition at 1 μg/mL at the time point indicated.)	−ve (−ve and +ve indicate that the value is below and above respectively, the no significant effect threshold, defined as 30% inhibition at 1 μg/mL at the time point indicated.)
12	Cc1ccc(-n2nc(C(C)(C)C)cc2NC(=O)Nc2ccc(Oc3ccnc(Nc4cccc(C(=O)N(C)C)c4)n3)c3ccccc23)cc1 [Example 26, 3-((4-((4-(3-(3-(tert-butyl)-1-(p-tolyl)-1H-pyrazol-5-yl)ureido)naphthalen-1-yl)oxy)pyrimidin-2-yl)amino)-N,N-dimethylbenzamide]	−ve (−ve and +ve indicate that the value is below and above respectively, the no significant effect threshold, defined as 30% inhibition at 1 μg/mL at the time point indicated.)	−ve (−ve and +ve indicate that the value is below and above respectively, the no significant effect threshold, defined as 30% inhibition at 1 μg/mL at the time point indicated.)
52	Cc1ccc(-n2nc(C(C)(C)C)cc2NC(=O)Nc2ccc(Oc3ccnc(Nc4cc(C)cc(C(N)=O)c4)n3)c3ccccc23)cc1 [Example 40, 3-((4-((4-(3-(3-(tert-butyl)-1-(p-tolyl)-1H-pyrazol-5-yl)ureido)naphthalen-1-yl)oxy)pyrimidin-2-yl)amino)-5-methylbenzamide]	−ve (−ve and +ve indicate that the value is below and above respectively, the no significant effect threshold, defined as 30% inhibition at 1 μg/mL at the time point indicated.)	−ve (−ve and +ve indicate that the value is below and above respectively, the no significant effect threshold, defined as 30% inhibition at 1 μg/mL at the time point indicated.)
